Data: patent publication US20100249116A1 (priority 2007, published 2010)
Read-outs that look alike come from different tables or passages of the source.

Columns and labels:
[1] = test system: acute intoxication of male Wistar rats with ethylene glycol (EG); conditions: rat, in vivo
[2] = in vivo; conditions: male, Wistar, rat, sc

| Structure (SMILES) | LD50 (toxicity parameter of EG) ([1]; male, Wistar, sc) [mg/kg] | K - Coefficient of efficiency (ratio of LD50 for treated animals to LD50 for non-treated animals) [1] | KG - Coefficient of guaranteed defense (ratio of LD10 for treated animals to LD90 for non-treated animals) [1] | LD10 (toxicity parameter of EG) ([1]; sc) [mg/kg] | LD16 (toxicity parameter of EG) ([1]; sc) [mg/kg] | LD84 (toxicity parameter of EG) ([1]; sc) [mg/kg] | LD90 (toxicity parameter of EG) ([1]; sc) [mg/kg] | LD10 (toxicity parameter of EG) ([1]; male, Wistar, sc) [mg/kg] | LD16 (toxicity parameter of EG) ([1]; male, Wistar, sc) [mg/kg] | LD84 (toxicity parameter of EG) ([1]; male, Wistar, sc) [mg/kg] | LD90 (toxicity parameter of EG) ([1]; male, Wistar, sc) [mg/kg] | LD50 [2] [mg/kg] |
| --- | --- | --- | --- | --- | --- | --- | --- | --- | --- | --- | --- | --- |
| Cc1cn[nH]c1 [4MP, 4-methylpyrazole] | 13000 | 3.71 | 2.04 | 10600 | 11000 | 15200 | 16100 |  |  |  |  |  |
| OCCO [EG, Ethylene Glycol] |  |  |  |  |  |  |  | 2220 | 2490 | 4530 | 5200 | 3500 |
